Test results published in publication PMC6650083, “Structure and functional analysis of a bacterial adhesin sugar-binding domain” (PLoS ONE, 2019).
Where “and” joins values, the source holds several entries; their conditions need not be identical. Identical values can stand only once. Like-named read-outs stand apart in the source and are kept apart here.

Experiments:
MhPA14 [1] = target: T1, MhPA14 (Marinobacter hydrocarbonoclasticus, UniProt A0ABF7PGZ6); assay: Isothermal titration calorimetry (ITC); assay type: binding; conditions: 30°C; for Kd: 400 μM MhPA14, 8 mM sugar
T1 sequence (A0ABF7PGZ6 entry or part of it): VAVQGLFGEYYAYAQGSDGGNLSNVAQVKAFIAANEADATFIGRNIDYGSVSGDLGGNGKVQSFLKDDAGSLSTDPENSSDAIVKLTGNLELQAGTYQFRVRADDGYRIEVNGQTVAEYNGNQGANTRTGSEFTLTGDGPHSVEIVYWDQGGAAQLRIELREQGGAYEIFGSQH
Description: Isothermal calorimetric titration (ITC) measurements were performed using a MicroCal VP-ITC calorimeter (Malvern) set at 30°C. […] Sugars were added from the computer-controlled rotating syringe (400 RPM) at 5-min intervals into the MhPA14 solution for a total of 50 injections. The data were analyzed by Origin software Version 5.0 (Malvern).

MhPA14 [2] = target: T1, MhPA14; assay: Superdex 200 column affinity test (gradient elution of bound MhPA14); assay type: binding; conditions: increasing gradient, 0-55 mM glucose or 0-5 mM EDTA over 45 min
Description: A Superdex 200 10/300 GL column (GE Healthcare) was used to probe the resin-binding ability of MhPA14. Approximately 1 mg of MhPA14 was loaded onto the column and washed with 3 column volumes of Protein Buffer. An increasing gradient of either glucose or EDTA was then implemented, rising from 0 mM– 55 mM glucose or 0 mM– 5 mM EDTA over 45 min.

EpA1 = target: EpA1; parameters: method as in PMID 22349222; conditions: EpA1 and its sugar of choice; cited from earlier work
MhPA14 [3] = target: T1, MhPA14; assay: Dextran-based (Superdex 200 resin) competitive binding assay
Description: Superdex 200 (S200) resin stored in 20% ethanol was washed twice in Protein Buffer using 6600 xg centrifugation. A millilitre of 1 mg/mL MhPA14 fused N-terminally to GFP, named GFP_MhPA14 (S1 Fig), was incubated with 300 μL of equilibrated S200 resin. Following 30 sec of vortexing and 2 min of incubation with slight mixing (nutation), the solution was centrifuged at 6600 xg for 2.5 min and the supernatant discarded. Protein buffer (1 mL) was added to the tube, and the process of mixing followed by centrifugation was repeated. The A280 of the resulting supernatant was taken to account for the minimal amount of non-sugar-related protein disassociation from the resin, and was used as a baseline reading. The supernatant was then returned into its original resin mixture tube with the addition of 1.67 μmoles (3 μL of 555 mM) of saccharide. […] After reading the A280 of the supernatant, the above process was repeated for seven tandem saccharide additions of 1.67 μmoles, as well as a final 5-μmole addition. […]
Attempts to solve MhPA14 structures with other sugars bounds–whether by soaking or co-crystallization–were fruitless. […] The amount of GFP-tagged MhPA14 released from the resin upon each sugar addition was measured using absorbance at 280 nm, which was plotted against concentration of free sugar to produce semi-quantitative binding curves (Fig 8). […]

MhPA14 [4] = target: T1, MhPA14; assay: Fungal, bacterial and plant polysaccharide array set 2 (Imperial College) probed with GFP_MhPA14; assay type: binding; conditions: 50 μg/mL GFP_MhPA14, anti-GFP antibody detection, average of duplicates
Description: The second array was screened at the Carbohydrate Microarray Facility (Glycosciences Laboratory, Imperial College). GFP_MhPA14 (50 μg/mL) was exposed to the ‘Fungal, bacterial and plant polysaccharide array set 2’, which contained duplicates of 20 saccharide probes extracted from a variety of organisms. An Alexa Fluora 647-tagged anti-GFP antibody was used for detection, and the duplicates were averaged to give the final RFU values.

[5] = fucose and glucose are averages of triplicate runs, read-out: Kd
[6] = fucose and glucose are averages of triplicate runs

| Compound | Kd (MhPA14 [1]; [5]) | N (calculated stoichiometry) (MhPA14 [1]; [6]) | Affinity for MhPA14 on polysaccharide array (MhPA14 [4]) | also measured |
| --- | --- | --- | --- | --- |
| O=CC[C@@H](O)[C@H](O)[C@H](O)CO [2-deoxy-D-glucose] | 228 µM | 0.86 |  |  |
| O=C(O)CN(CCN(CC(=O)O)CC(=O)O)CC(=O)O [EDTA] |  |  |  | Concentration at which MhPA14 eluted from Superdex S200 column (MhPA14 [2]): 3.5 mM |
| C[C@H](O)[C@@H](O)[C@@H](O)[C@H](O)C=O [Fucose, 6-deoxy-L-galactose] | 58 µM and 58.2 µM | 0.98 ± 0.03 |  |  |
| O=C[C@H](O)[C@@H](O)[C@@H](O)[C@H](O)CO [Galactose] |  | 1.00 |  | Kd (EpA1): 115 µM; Kd (MhPA14 [1]; Kd): > 1000 µM; Kd (MhPA14 [1]; Kd, fucose and glucose are averages of triplicate runs): 1540 µM |
| OC[C@H]1OC(O)[C@H](O)[C@@H](O)[C@@H]1O (stereo partly drawn) [Glucose, glucose] | 137 µM | 1.01 ± 0.14 |  | Concentration at which MhPA14 eluted from Superdex S200 column (MhPA14 [2]): 25 mM |
| CC(=O)N[C@@H]1[C@@H](O)[C@@H](O)[C@@H](CO)O[C@@H]1O [N-acetylgalactosamine] |  |  |  | Kdapp (apparent dissociation constant) (MhPA14 [3]; GFP_MhPA14 displaced from Superdex 200 resin by free sugar, A280 readout, triplicate, semi-quantitative): Non-binding; Binding in competitive binding assay (MhPA14 [3]; GFP_MhPA14 on Superdex 200 resin): unable to bind MhPA14 at all |
| curdlan |  |  | almost no affinity |  |
| dextran |  |  | modest affinities |  |
| lentinan |  |  | strongest affinity |  |
| pullulan |  |  | modest affinities |  |
